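Following 48 hours of exposure in 96-well plates, responses at five concentrations were used to interpolate endpoints linearly. GI50: concentration for 50% inhibition of growth.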 Activity calls are given as the source filed them. No stated cut-off is given here; in the data, active = GI50 up to about 1.1 µM and inactive = higher.
Columns and labels:
Assay in all cases: NCI-60 cell line screen, 48 h
[1] = system: HOP-92
[2] = system: CAKI-1
[3] = system: SNB-19
[4] = system: SK-MEL-28
[5] = system: SN12C
[6] = system: T47D
[7] = system: KM12
[8] = system: NCI/ADR-RES
[9] = system: COLO 205
[10] = system: MDA-MB-231
[11] = system: PC-3
[12] = system: IGROV-1
[13] = system: OVCAR-4
[14] = system: K562
[15] = system: HL-60
[16] = system: MCF7
[17] = system: HT-29
[18] = system: SF-268
[19] = system: EKVX

Structure (SMILES) | GI50 [1] | GI50 [2] | GI50 [3] | GI50 [4] | GI50 [5] | GI50 [6] | GI50 [7] | GI50 [8] | GI50 [9] | GI50 [10] | GI50 [11] | GI50 [12] | GI50 [13] | GI50 [14] | GI50 [15] | GI50 [16] | GI50 [17] | GI50 [18] | GI50 [19]
NCCN1C(=O)c2ccccc2C1(O)c1ccc(Cl)cc1 (stereo not given) | 10.4 µM (inactive) | 24.5 µM (inactive) | 23.1 µM (inactive) | 17.6 µM (inactive) | 35.2 µM (inactive) | 19.4 µM (inactive) | 16.9 µM (inactive) | 37.4 µM (inactive) | 19.6 µM (inactive) | 15.5 µM (inactive) | 20.3 µM (inactive) | 19 µM (inactive) | 28.5 µM (inactive) | 19.7 µM (inactive) | 52.8 µM (inactive) | 16.7 µM (inactive) | 19.6 µM (inactive) | 27.1 µM (inactive) | 21.3 µM (inactive)
O=[N+]([O-])c1cc([As](Br)c2ccc(O)c([N+](=O)[O-])c2)ccc1O | 1.38 µM (inactive) | 1.7 µM (inactive) | 1.94 µM (inactive) | 1.63 µM (inactive) | 1.65 µM (inactive) | 0.204 µM (active) | 2 µM (inactive) | 2.77 µM (inactive) | 1.26 µM (inactive) | 1.39 µM (inactive) | 1.95 µM (inactive) | 1.47 µM (inactive) | 1.66 µM (inactive) | 0.462 µM (active) | 1.17 µM (inactive) | 1.27 µM (inactive) | 3.43 µM (inactive) | 2.14 µM (inactive) | 1.87 µM (inactive)
NC(=S)N/N=C\c1nccc2ccccc12 | 0.264 µM (active) | 0.33 µM (active) | 0.531 µM (active) | 0.36 µM (active) | 0.262 µM (active) | 2.69 µM (inactive) | 0.885 µM (active) | 0.285 µM (active) | 0.302 µM (active) | 0.46 µM (active) | 0.685 µM (active) | 0.42 µM (active) | 0.309 µM (active) | 0.731 µM (active) | 0.327 µM (active) | 0.253 µM (active) | 0.485 µM (active) | 0.216 µM (active) | 0.302 µM (active)
CNC(=O)CCCN(C)C(=O)CCCCC(=O)N(C)C | > 60.1 µM (inactive) | > 37.6 µM (inactive) | > 60.1 µM (inactive) | > 54.2 µM (inactive) | > 61.1 µM (inactive) | 35 µM (inactive) | > 59.7 µM (inactive) | > 59 µM (inactive) | > 57.7 µM (inactive) | > 37.8 µM (inactive) | > 54.3 µM (inactive) | > 58.7 µM (inactive) | > 100 µM (inactive) | > 55.2 µM (inactive) | 26.7 µM (inactive) | > 62.2 µM (inactive) | > 57.1 µM (inactive) | > 60.8 µM (inactive) | > 57.9 µM (inactive)
CC1(C)COC(c2cccc(C(=O)c3ccccc3)c2)=N1 | 25.9 µM (inactive) | 46.7 µM (inactive) | 51.4 µM (inactive) | 42.8 µM (inactive) | 32 µM (inactive) | 25.7 µM (inactive) | 44.6 µM (inactive) | 31.6 µM (inactive) | 56.9 µM (inactive) | 33.4 µM (inactive) | 38.9 µM (inactive) | > 100 µM (inactive) | 31 µM (inactive) | 36.2 µM (inactive) | 18.6 µM (inactive) | 47.8 µM (inactive) | 33.1 µM (inactive) | 90.4 µM (inactive) | 34.9 µM (inactive)
CCOC(=O)Cn1c(=O)c2cc(-c3ccccc3)cc3c(Cl)nc4c(OC)c(OC)cc1c4c32 | 10.7 µM (inactive) | 27.2 µM (inactive) | 19 µM (inactive) | 21 µM (inactive) | 16.2 µM (inactive) | 16 µM (inactive) | 31.6 µM (inactive) | 16.9 µM (inactive) | 50.6 µM (inactive) | 17.6 µM (inactive) | 15.9 µM (inactive) | 13 µM (inactive) | 21.6 µM (inactive) | 13.8 µM (inactive) | 4.89 µM (inactive) | 9.14 µM (inactive) | 13.8 µM (inactive) | 9.93 µM (inactive) | 12.4 µM (inactive)
CC(=O)Nc1cc2ccc(=O)oc2cc1Cl | > 100 µM (inactive) | > 100 µM (inactive) | > 100 µM (inactive) | > 100 µM (inactive) | > 100 µM (inactive) | > 100 µM (inactive) | > 100 µM (inactive) | > 100 µM (inactive) | > 100 µM (inactive) | > 100 µM (inactive) | > 100 µM (inactive) | > 100 µM (inactive) | > 100 µM (inactive) | > 100 µM (inactive) | > 100 µM (inactive) | > 100 µM (inactive) | > 100 µM (inactive) | > 100 µM (inactive) | > 100 µM (inactive)
COc1ccccc1/C=C\c1cnnc2ccccc12 | 0.0372 µM (active) | > 10 µM (inactive) | > 10 µM (inactive) | > 10 µM (inactive) | > 10 µM (inactive) | > 10 µM (inactive) | > 10 µM (inactive) | > 10 µM (inactive) | > 10 µM (inactive) | > 10 µM (inactive) | > 10 µM (inactive) | 8.63 µM (inactive) | > 10 µM (inactive) | 4.7 µM (inactive) | > 10 µM (inactive) | 3.56 µM (inactive) | 3.77 µM (inactive) | > 10 µM (inactive) | 8.79 µM (inactive)
COC1=CC2(CC(OC)=C1OC)OC21COc2ccccc2C1=O (stereo not given) | > 100 µM (inactive) | > 100 µM (inactive) | 65.2 µM (inactive) | > 100 µM (inactive) | 47.2 µM (inactive) | 34.3 µM (inactive) | > 100 µM (inactive) | 85.7 µM (inactive) | > 100 µM (inactive) | > 100 µM (inactive) | 84.5 µM (inactive) | > 100 µM (inactive) | 84.5 µM (inactive) | 56.2 µM (inactive) | 32.4 µM (inactive) | 55.7 µM (inactive) | 51.4 µM (inactive) | > 100 µM (inactive) | 39.4 µM (inactive)
COc1ccc2[nH]c3c([N+](=O)[O-])ccc(Cl)c3c(=O)c2c1 | 14 µM (inactive) | 23.2 µM (inactive) | 51.4 µM (inactive) | 27.2 µM (inactive) | 22.9 µM (inactive) | 29.2 µM (inactive) | > 45.5 µM (inactive) | 25.6 µM (inactive) | 17 µM (inactive) | 18 µM (inactive) | 22.5 µM (inactive) | 13.1 µM (inactive) | 15.4 µM (inactive) | 2.99 µM (inactive) | 3.02 µM (inactive) | 25.1 µM (inactive) | 16.3 µM (inactive) | 20.8 µM (inactive) | 44.1 µM (inactive)
Cc1cc(-c2nc3cc(F)ccc3s2)ccc1NC(=O)[C@@H](N)CCCCN | 13.4 µM (inactive) | 0.647 µM (active) | 10.4 µM (inactive) | 18.9 µM (inactive) | 13 µM (inactive) | < 0.0138 µM (active) | 1.3 µM (inactive) | 15.2 µM (inactive) | 2.58 µM (inactive) | 2.29 µM (inactive) | 8.05 µM (inactive) | < 0.0131 µM (active) | 2.12 µM (inactive) | 2.17 µM (inactive) | 2.02 µM (inactive) | 0.01 µM (active) | 2.82 µM (inactive) | 6.75 µM (inactive) | 1.87 µM (inactive)
CC(=NNC(=S)Nc1cccc(C)c1)c1cccc(C(C)=NNC(=S)Nc2cccc(C)c2)n1 | 17.1 µM (inactive) | 11.9 µM (inactive) | 30.5 µM (inactive) | > 100 µM (inactive) | 25.8 µM (inactive) | 30.8 µM (inactive) | 0.851 µM (active) | 14.2 µM (inactive) | 8 µM (inactive) | 19 µM (inactive) | 22.3 µM (inactive) | 10.8 µM (inactive) | 9.95 µM (inactive) | 17.1 µM (inactive) | 17.3 µM (inactive) | 22.9 µM (inactive) | 26.1 µM (inactive) | 59.2 µM (inactive) | 26.1 µM (inactive)
COc1ccc(-c2nc(N(C)C)c3ccccc3n2)cc1 | 12.4 µM (inactive) | 14 µM (inactive) | 17.7 µM (inactive) | 14.9 µM (inactive) | 7.89 µM (inactive) | 10.8 µM (inactive) | 13.4 µM (inactive) | 5.09 µM (inactive) | 10.1 µM (inactive) | 28.4 µM (inactive) | 24 µM (inactive) | 9.55 µM (inactive) | 32.6 µM (inactive) | 13.9 µM (inactive) | 12.4 µM (inactive) | 11 µM (inactive) | 5.51 µM (inactive) | 15.9 µM (inactive) | 3.66 µM (inactive)
O=C1CNCCCN2CCN(CCCNCC(=O)Nc3ccc(cc3)S(=O)(=O)c3ccc(cc3)NC(=O)CNCCCN3CCN(CCCNCC(=O)Nc4ccc(cc4)S(=O)(=O)c4ccc(cc4)N1)CC3)CC2 | 28.1 µM (inactive) | 30.1 µM (inactive) | 52.2 µM (inactive) | 22.3 µM (inactive) | > 45.3 µM (inactive) | 27.9 µM (inactive) | 27.2 µM (inactive) | 40.3 µM (inactive) | 34.8 µM (inactive) | 22.5 µM (inactive) | 42.3 µM (inactive) | 21.2 µM (inactive) | > 47.9 µM (inactive) | 22.3 µM (inactive) | 0.433 µM (active) | 46.1 µM (inactive) | 27.2 µM (inactive) | 22.9 µM (inactive) | 36.6 µM (inactive)
O=C(OCc1ccccc1[N+](=O)[O-])N1c2ccccc2[C@@]23O[C@]24CCC[C@H]3C#C/C=C\C#C[C@H]14 | 25.6 µM (inactive) | 7.36 µM (inactive) | > 100 µM (inactive) | 44.1 µM (inactive) | 13.7 µM (inactive) | 73.8 µM (inactive) | > 100 µM (inactive) | 31.3 µM (inactive) | 67.3 µM (inactive) | > 100 µM (inactive) | 14.8 µM (inactive) | > 100 µM (inactive) | > 100 µM (inactive) | 5.83 µM (inactive) | 2.5 µM (inactive) | 0.875 µM (active) | 38.1 µM (inactive) | 75 µM (inactive) | > 100 µM (inactive)
